Laboratory results from US11162944B2, “Compositions and methods” (priority 2015, dated 2021).
Where two headings read alike, the source gives them in different places. Marks after values point to notes of the source that are not given here.

Experiments:
wild-type BMDCs = assay: IL-6 secretion by bone marrow-derived dendritic cells, cytokine-specific ELISA; assay type: cell-based, mice; details: antigens at 100 μg/ml coated on plate, ISO as solvent, FIG. 1
Protocol: The concentrations of cytokines in the cell-free medium from stimulation of bone marrow-derived dendritic cells were determined using standard cytokine-specific ELISA. BMDCs were generated from mice, by flushing out the femurs of mice into complete medium and pipetting vigorously to make a single-cell suspension. The glycolipids were coated to the bottom of 96 micro-well plates (100 μg/ml). BMDCs were added, and after 6 or 48 hours of incubation the supernatants were harvested.
The first experiment was the IL-6 secretion by wild-type BMDCs from mice using compounds B, D, C and H (shown below) as antigens at 100 μg/ml, and isopropyl alcohol (ISO) as a solvent. Commercial trehalose-6,6-dimycolate (TDM), lipopolysaccharides (LPS), and trehalose-6,6-dibehenate (TDB) were used as a controls.

[1] = system: biomarker (antibody) in serum samples from patients with symptoms of tuberculosis; assay type: binding, human

SMILES: CCCCCCCCCCCCCCCCCCCCCCCC[C@@H](C(=O)OC[C@H]1O[C@H](OC)[C@@H](O)[C@@H]1O)[C@H](O)CCCCCCCCCCCCCCCCC[C@@H]1C[C@@H]1CCCCCCCCCCCCCCCC[C@@H](OC)[C@@H](C)CCCCCCCCCCCCCCCCCC [Antigen B]
- IL-6 secretion by wild-type BMDCs (wild-type BMDCs): good level of stimulation
- ELISA absorbance at 492 nm ([1]; serum sample 1 TB+): 0.48*
- ELISA absorbance at 492 nm ([1]; serum sample 2 TB+): 0.54*
- ELISA absorbance at 492 nm ([1]; serum sample 3 TB+): 1.10*
- ELISA absorbance at 492 nm ([1]; serum sample 4 TB+): 1.00*
- ELISA absorbance at 492 nm ([1]; serum sample 5 TB+): 0.45*
- ELISA absorbance at 492 nm ([1]; serum sample 6 TB+): 0.97*
- ELISA absorbance at 492 nm ([1]; serum sample 7 TB+): 0.87*
- ELISA absorbance at 492 nm ([1]; serum sample 8 TB+): 0.97*
- ELISA absorbance at 492 nm ([1]; serum sample 9 TB+): 0.62*
- ELISA absorbance at 492 nm ([1]; serum sample 10 TB−): 0.56*
- ELISA absorbance at 492 nm ([1]; serum sample 11 TB−): 0.64*
- ELISA absorbance at 492 nm ([1]; serum sample 12 TB−): 0.44
- ELISA absorbance at 492 nm ([1]; serum sample 13 TB−): 0.56*
- ELISA absorbance at 492 nm ([1]; serum sample 14 TB−): 0.91*
- ELISA absorbance at 492 nm ([1]; serum sample 15 TB−): 0.53*
- ELISA absorbance at 492 nm ([1]; serum sample 16 TB−): 0.52*
- ELISA absorbance at 492 nm ([1]; serum sample 17 TB−): 0.87*
- ELISA absorbance at 492 nm ([1]; serum sample 18 TB−): 0.44
- ELISA absorbance at 492 nm ([1]; serum sample 19 TB−): 0.53*
- ELISA absorbance at 492 nm ([1]; serum sample 20 TB−): 0.63*
- ELISA absorbance at 492 nm ([1]; serum sample 21 TB−): 0.42
- ELISA absorbance at 492 nm ([1]; serum sample 22 TB−): 0.33
- ELISA absorbance at 492 nm ([1]; serum sample 23 TB−): 0.48*
- ELISA absorbance at 492 nm ([1]; serum sample 24 TB−): 0.81*
- ELISA absorbance at 492 nm ([1]; serum sample 25 TB−): 0.23
- ELISA absorbance at 492 nm ([1]; serum sample 26 TB−): 0.64*
- ELISA absorbance at 492 nm ([1]; serum sample 27 TB−): 0.60*
- ELISA absorbance at 492 nm ([1]; serum sample 28 TB−): 0.42
- ELISA absorbance at 492 nm ([1]; serum sample 29 TB−): 0.39
- ELISA absorbance at 492 nm ([1]; serum sample 30 TB−): 0.41
- ELISA absorbance at 492 nm ([1]; serum sample 31 TB−): 0.37
- ELISA absorbance at 492 nm ([1]; serum sample 32 TB−): 0.68*
- ELISA absorbance at 492 nm ([1]; serum sample 33 TB−): 0.36
- ELISA absorbance at 492 nm ([1]; serum sample 34 TB−): 0.47*
- ELISA absorbance at 492 nm ([1]; serum sample 35 TB−): 0.38
- ELISA absorbance at 492 nm ([1]; serum sample 36 TB−): 0.28
- ELISA absorbance at 492 nm ([1]; serum sample 37 TB−): 0.40
- ELISA absorbance at 492 nm ([1]; serum sample 38 TB−): 0.44
- ELISA absorbance at 492 nm ([1]; serum sample 39 TB−): 0.31
- ELISA absorbance at 492 nm ([1]; serum sample 40 TB−): 0.28
- ELISA absorbance at 492 nm ([1]; serum sample 41 TB−): 0.51*
- ELISA absorbance at 492 nm ([1]; serum sample 42 TB−): 0.49*
- ELISA absorbance at 492 nm ([1]; serum sample 43 TB−): 0.28
- ELISA absorbance at 492 nm ([1]; serum sample 44 TB−): 0.60*
- ELISA absorbance at 492 nm ([1]; serum sample 45 TB−): 0.34
- ELISA absorbance at 492 nm ([1]; serum sample 46 TB−): 0.27
- ELISA absorbance at 492 nm ([1]; serum sample 47 TB−): 0.35
- ELISA absorbance at 492 nm ([1]; serum sample 48 TB−): 0.29
- ELISA absorbance at 492 nm ([1]; serum sample 49 TB−): 0.47*
- ELISA absorbance at 492 nm ([1]; serum sample 50 TB−): 0.31
- ELISA absorbance at 492 nm ([1]; serum sample 51 TB−): 0.22
- ELISA absorbance at 492 nm ([1]; serum sample 52 TB−): 0.28
- ELISA absorbance at 492 nm ([1]; serum sample 53 TB−): 0.24
- ELISA absorbance at 492 nm ([1]; serum sample 54 TB−): 0.25
- ELISA absorbance at 492 nm ([1]; serum sample 55 TB−): 0.27
- ELISA absorbance at 492 nm ([1]; serum sample 56 TB−): 0.42
- ELISA absorbance at 492 nm ([1]; serum sample 57 TB−): 0.40
- ELISA absorbance at 492 nm ([1]; serum sample 58 TB−): 0.32
- ELISA absorbance at 492 nm ([1]; serum sample 59 TB−): 0.30
- ELISA absorbance at 492 nm ([1]; serum sample 60 TB−): 0.36
- ELISA absorbance at 492 nm ([1]; serum sample 61 TB−): 0.36
- ELISA absorbance at 492 nm ([1]; serum sample 62 TB−): 0.26
- ELISA absorbance at 492 nm ([1]; serum sample 63 TB−): 0.21
- ELISA absorbance at 492 nm ([1]; serum sample 64 TB−): 2.33*

SMILES: CCCCCCCCCCCCCCCCCCCCCC[C@@H](C(=O)OC[C@H]1O[C@H](OC)[C@@H](O)[C@@H]1O)[C@H](O)CCCCCCCCCCCCCCC[C@@H]1C[C@@H]1CCCCCCCCCCCCCCCCCCC(=O)C(C)CCCCCCCCCCCCCCCCCC (stereo partly shown) [Antigen C]
- IL-6 secretion by wild-type BMDCs (wild-type BMDCs): no significant stimulation
- ELISA absorbance at 492 nm ([1]; serum sample 1 TB+): 0.33*
- ELISA absorbance at 492 nm ([1]; serum sample 2 TB+): 0.26*
- ELISA absorbance at 492 nm ([1]; serum sample 3 TB+): 0.44*
- ELISA absorbance at 492 nm ([1]; serum sample 4 TB+): 0.48*
- ELISA absorbance at 492 nm ([1]; serum sample 5 TB+): 0.40*
- ELISA absorbance at 492 nm ([1]; serum sample 6 TB+): 0.39*
- ELISA absorbance at 492 nm ([1]; serum sample 7 TB+): 1.37*
- ELISA absorbance at 492 nm ([1]; serum sample 8 TB+): 0.46*
- ELISA absorbance at 492 nm ([1]; serum sample 9 TB+): 0.35*
- ELISA absorbance at 492 nm ([1]; serum sample 10 TB−): 0.22
- ELISA absorbance at 492 nm ([1]; serum sample 11 TB−): 0.20
- ELISA absorbance at 492 nm ([1]; serum sample 12 TB−): 0.18
- ELISA absorbance at 492 nm ([1]; serum sample 13 TB−): 0.24
- ELISA absorbance at 492 nm ([1]; serum sample 14 TB−): 0.56*
- ELISA absorbance at 492 nm ([1]; serum sample 15 TB−): 0.22
- ELISA absorbance at 492 nm ([1]; serum sample 16 TB−): 0.30*
- ELISA absorbance at 492 nm ([1]; serum sample 17 TB−): 0.57*
- ELISA absorbance at 492 nm ([1]; serum sample 18 TB−): 0.32*
- ELISA absorbance at 492 nm ([1]; serum sample 19 TB−): 0.20
- ELISA absorbance at 492 nm ([1]; serum sample 20 TB−): 0.41*
- ELISA absorbance at 492 nm ([1]; serum sample 21 TB−): 0.41*
- ELISA absorbance at 492 nm ([1]; serum sample 22 TB−): 0.31*
- ELISA absorbance at 492 nm ([1]; serum sample 23 TB−): 0.27*
- ELISA absorbance at 492 nm ([1]; serum sample 24 TB−): 0.53*
- ELISA absorbance at 492 nm ([1]; serum sample 25 TB−): 0.24
- ELISA absorbance at 492 nm ([1]; serum sample 26 TB−): 0.90*
- ELISA absorbance at 492 nm ([1]; serum sample 27 TB−): 0.46*
- ELISA absorbance at 492 nm ([1]; serum sample 28 TB−): 0.42*
- ELISA absorbance at 492 nm ([1]; serum sample 29 TB−): 0.38*
- ELISA absorbance at 492 nm ([1]; serum sample 30 TB−): 0.39*
- ELISA absorbance at 492 nm ([1]; serum sample 31 TB−): 0.51*
- ELISA absorbance at 492 nm ([1]; serum sample 32 TB−): 1.01*
- ELISA absorbance at 492 nm ([1]; serum sample 33 TB−): 0.33*
- ELISA absorbance at 492 nm ([1]; serum sample 34 TB−): 0.52*
- ELISA absorbance at 492 nm ([1]; serum sample 35 TB−): 0.55*
- ELISA absorbance at 492 nm ([1]; serum sample 36 TB−): 0.25
- ELISA absorbance at 492 nm ([1]; serum sample 37 TB−): 0.43*
- ELISA absorbance at 492 nm ([1]; serum sample 38 TB−): 0.43*
- ELISA absorbance at 492 nm ([1]; serum sample 39 TB−): 0.34*
- ELISA absorbance at 492 nm ([1]; serum sample 40 TB−): 0.26*
- ELISA absorbance at 492 nm ([1]; serum sample 41 TB−): 0.44*
- ELISA absorbance at 492 nm ([1]; serum sample 42 TB−): 0.42*
- ELISA absorbance at 492 nm ([1]; serum sample 43 TB−): 0.32*
- ELISA absorbance at 492 nm ([1]; serum sample 44 TB−): 1.32*
- ELISA absorbance at 492 nm ([1]; serum sample 45 TB−): 0.49*
- ELISA absorbance at 492 nm ([1]; serum sample 46 TB−): 0.28*
- ELISA absorbance at 492 nm ([1]; serum sample 47 TB−): 0.56*
- ELISA absorbance at 492 nm ([1]; serum sample 48 TB−): 0.55*
- ELISA absorbance at 492 nm ([1]; serum sample 49 TB−): 0.79*
- ELISA absorbance at 492 nm ([1]; serum sample 50 TB−): 0.38*
- ELISA absorbance at 492 nm ([1]; serum sample 51 TB−): 0.18
- ELISA absorbance at 492 nm ([1]; serum sample 52 TB−): 0.32*
- ELISA absorbance at 492 nm ([1]; serum sample 53 TB−): 0.21
- ELISA absorbance at 492 nm ([1]; serum sample 54 TB−): 0.26*
- ELISA absorbance at 492 nm ([1]; serum sample 55 TB−): 0.31*
- ELISA absorbance at 492 nm ([1]; serum sample 56 TB−): 0.90*
- ELISA absorbance at 492 nm ([1]; serum sample 57 TB−): 0.55*
- ELISA absorbance at 492 nm ([1]; serum sample 58 TB−): 0.44*
- ELISA absorbance at 492 nm ([1]; serum sample 59 TB−): 0.65*
- ELISA absorbance at 492 nm ([1]; serum sample 60 TB−): 0.62*
- ELISA absorbance at 492 nm ([1]; serum sample 61 TB−): 0.76*
- ELISA absorbance at 492 nm ([1]; serum sample 62 TB−): 0.19
- ELISA absorbance at 492 nm ([1]; serum sample 63 TB−): 0.26*
- ELISA absorbance at 492 nm ([1]; serum sample 64 TB−): 0.37*
